Assay results from patent US12376538B2, “Rice cultivar designated ‘CLL17’” (Board of Supervisors of Louisiana State University and …, priority 2020, dated 2025).

What follows are molecules tested on ‘CLL17’ rice plant (assay: Herbicide tolerance and susceptibility of 'CLL17' rice plants). Conditions: at levels of the herbicide that would normally inhibit the growth of a rice plant.
Type: in vivo
Description: The variety is resistant to imidazolinone herbicides. The herbicide resistance (or herbicide tolerance) profile is essentially the same as that of ‘CL161’ through common ancestry. The herbicide tolerance allows ‘CLL17,’ its hybrids, and derived varieties to be used with certain imidazolinone or sulfonylurea herbicides, including among others the imidazolinone herbicides imazethapyr and imazamox, for the selective control of weeds including red rice. See generally U.S. Pat. No. 6,943,280.
Among others, the herbicide tolerance and susceptibility characteristics of ‘CLL17’ include or are expected to include the following.

SMILES | herbicide tolerance / susceptibility of ‘CLL17’ (resistant or sensitive)
CCS(=O)(=O)c1cccnc1S(=O)(=O)NC(=O)Nc1nc(OC)cc(OC)n1 [rimsulfuron] | sensitive
CCc1cnc(C2=NC(C)(C(C)C)C(=O)N2)c(C(=O)O)c1 (stereo not drawn) [imazethapyr] | resistant
COC(=O)c1ccccc1S(=O)(=O)NC(=O)Nc1nc(C)cc(C)n1 [sulfometuron methyl] | sensitive
COC(=O)c1ccccc1S(=O)(=O)NC(=O)Nc1nc(C)nc(OC)n1 [metsulfuron methyl] | resistant
CC(C)C1(C)N=C(c2ncccc2C(=O)O)NC1=O (stereo not drawn) [imazapyr] | resistant
CC(C)C1(C)N=C(c2nc3ccccc3cc2C(=O)O)NC1=O (stereo not drawn) [imazaquin] | resistant
CCOC(=O)c1ccccc1S(=O)(=O)NC(=O)Nc1nc(Cl)cc(OC)n1 [chlorimuron ethyl] | sensitive
COCc1cnc(C2=NC(C)(C(C)C)C(=O)N2)c(C(=O)O)c1 (stereo not drawn) [imazamox] | resistant
COc1cc(OC)nc(NC(=O)NS(=O)(=O)c2ncccc2C(=O)N(C)C)n1 [nicosulfuron] | resistant
Cc1cnc(C2=NC(=O)C(C)(C(C)C)N2)c(C(=O)O)c1 (stereo not drawn) [imazapic] | resistant
COC(=O)c1sccc1S(=O)(=O)NC(=O)Nc1nc(C)nc(OC)n1 [thifensulfuron methyl] | resistant
COC(=O)c1ccccc1S(=O)(=O)NC(=O)N(C)c1nc(C)nc(OC)n1 [tribenuron methyl] | resistant
